Experimental data reported in article PMC5142287, “Weight control interventions improve therapeutic efficacy of dacarbazine in melanoma by reversing obesity-induced drug resistance” (Cancer & Metabolism, 2016).
“Also recorded” adds a separate entry of the source.

Columns and labels:
[1] = Obesity-associated factors in B16F10-isografted ND C57BL/6J mice; assay type: in vivo; conditions: end of experiment
Excerpt: Blood glucose levels and serum lipids were estimated as described previously. Insulin, leptin, and adiponectin levels in the serum were estimated by mouse-specific respective ELISA kits as described. Resistin, IL-6, and TNF-α levels in the serum were detected by indirect ELISA as described previously.

B16F10 cells = experiment: Long-term survival assay, B16F10 cells in serum from experimental mice; assay type: cell-based, Murine
Description: After 24 h, DMEM containing 5% serum collected from experimental C57BL/6J mice (as illustrated in Fig. 1) was added and cells were cultured chronically for 10 days.

B16F1 cells [2] = experiment: Long-term survival assay, B16F1 cells in serum from experimental mice; assay type: cell-based, Murine
Excerpt: Additional file 1: Table S1. Composition of diets used in the study. Normal diet (ND) was procured from Amrut Laboratory Animal Feed, Pune, India, and high fat diet (HFD) was purchased from Provimi Animal Nutrition Pvt. Ltd., Bangalore, India. *, HFD was also supplemented with 400 g groundnut and 200 g dried coconut per kg body weight of mice. […] Obesity-associated parameters in the experimental ND mice recorded at the end of the experiment. ND male C57BL/6J mice were divided into two major groups. One group was orally treated with orlistat every alternate day before inoculating with B16F10 cells. The second group was orally given vehicle control on every alternate day for 8 weeks. Mice from both the groups (N = 11 per each group) were injected (s.c.) with B16F10 cells (2 × 10^5 cells/mouse in 100 μl PBS). Their body weight was monitored weekly throughout the study, and serum was collected at the end of the experiment. Blood glucose, serum TG, serum cholesterol, serum-free fatty acids, and serum LDLc were measured. Serum factors including leptin, adiponectin, insulin, resistin, IL-6, and TNF-α were estimated by ELISA. […] Effect of obesity-associated serum factors on the protein level of P-gp, Cav-1, and FASN in B16F1 cells. […] The data were recorded using Zeiss LSM510 META Confocal Microscope. […] Data were acquired on FACS Calibur and analyzed using BD CellQuest Pro software. […]

B16F1 cells [3] = experiment: Long-term survival assay, B16F1 cells in CM from 3T3-L1 cells; assay type: cell-based, Murine
Excerpt: Additional file 1: Table S1. Composition of diets used in the study. Normal diet (ND) was procured from Amrut Laboratory Animal Feed, Pune, India, and high fat diet (HFD) was purchased from Provimi Animal Nutrition Pvt. Ltd., Bangalore, India. *, HFD was also supplemented with 400 g groundnut and 200 g dried coconut per kg body weight of mice. […] Obesity-associated parameters in the experimental ND mice recorded at the end of the experiment. ND male C57BL/6J mice were divided into two major groups. One group was orally treated with orlistat every alternate day before inoculating with B16F10 cells. The second group was orally given vehicle control on every alternate day for 8 weeks. Mice from both the groups (N = 11 per each group) were injected (s.c.) with B16F10 cells (2 × 10^5 cells/mouse in 100 μl PBS). Their body weight was monitored weekly throughout the study, and serum was collected at the end of the experiment. Blood glucose, serum TG, serum cholesterol, serum-free fatty acids, and serum LDLc were measured. Serum factors including leptin, adiponectin, insulin, resistin, IL-6, and TNF-α were estimated by ELISA. […] Effect of obesity-associated serum factors on the protein level of P-gp, Cav-1, and FASN in B16F1 cells. […] Thereafter, these cells were subjected to immunofluorescence confocal staining of the indicated molecules. The data were recorded using Zeiss LSM510 META Confocal Microscope. (Scale bar = 20 μm). […] Data were acquired on FACS Calibur and analyzed using BD CellQuest Pro software. The data are representative of experiments performed three times. (PDF 120 kb) Additional file 5: Figure S3. Effect of inhibition of FASN, Cav-1, and P-gp on response of B16F1 cells to DTIC. […] Thereafter, these cells were subjected to long-term survival assay. […] The medium was changed every 2–3 days.

B16F10 melanoma = B16F10 melanoma isograft in ND C57BL/6J mice: tumor growth and survival
Description: Melanoma cells were injected and orlistat treatment was continued. Following tumor formation, all groups of mice were treated with vehicle (acidified water) or DTIC, and tumor volume was followed up in these mice throughout the study as mentioned above. […] At the end of the experiment, mice were sacrificed, tumors were excised, and the samples were immediately preserved at −80 °C until further use. Five mice from each group were followed up for survival studies as mentioned above.

[4] = serum from orlistat-treated or diet-shifted obese mice, DTIC at 1415 μM

SMILES: CN(C)/N=N/c1[nH]cnc1C(N)=O [DTIC, Dacarbazine]
- Blood glucose ([1]; mean): 161.17 mg/dL
- Serum IL-6 ([1]; mean): 20.19 pg/mL
- Serum LDLc ([1]; mean): 53.12 mg/dL
- Serum TG ([1]; mean): 55.40 mg/dL
- Serum TNF-D ([1]; mean): 12.35 pg/mL
- Serum adiponectin ([1]; mean): 13873 ng/mL
- Serum cholesterol ([1]; mean): 82.82 mg/dL
- Serum free fatty acids ([1]; mean): 0.90 mM/L
- Serum insulin ([1]; mean): 0.114 µg/L
- Serum leptin ([1]; mean): 15.74 ng/mL
- Serum resistin ([1]; mean): 0.99 ng/mL
- Body weight ([1]; mean (SD on next line)): 21.1 g
- Increase of sensitivity to DTIC (B16F10 cells; HFD serum, FASN, Cav-1 and P-gp simultaneously inhibited (cerulenin, methyl β-cyclodextrin, verapamil)): approximately 80%
- Reduction of cell survival (B16F10 cells; [4]): approximately 70%
- Increase of sensitivity to DTIC (B16F1 cells [2]; HFD serum, FASN, Cav-1 and P-gp simultaneously inhibited): approximately 80%
- Reduction of cell survival (B16F1 cells [2]; [4]): ~75%
- Effect on survival (B16F1 cells [3]; CM from differentiated ID adipocytes): did not remarkably affect
- Improvement of sensitivity to DTIC (B16F1 cells [3]; CM from differentiated adipocytes, simultaneous treatment with all three inhibitors): approximately 80%
- Survival remaining (B16F1 cells [3]; CM from orlistat-treated differentiating adipocytes, DTIC at 649 μM): approximately 30%
- Survival of tumor-bearing mice (B16F10 melanoma): prolonged
- Tumor progression (tumor volume and weight) (B16F10 melanoma; DTIC 80 mg/kg i.p. 5 days, orlistat 10 mg/kg oral alternate days): significantly reduced; also recorded: significantly decreased
